In patent publication US8759384B2, “Oxo-imidazolyl compounds” (priority 2008, dated 2014):

Legend:
[1] = test system: Staphylococcus aureus MRSA; test: microbe, parasite or virus in culture; format: cell-based; details: Conc. 3 μM, read-out: Inhibitive activity MRSA (% inhibition of growth)
B. anthracis ΔSterne = test: microbe, parasite or virus in culture; format: cell-based; details: Bacillus anthracis; Conc. 3 μM; read-out: Inhibitive activity Anthracis (% inhibition of growth)

Work on `O=C(O)C(Cc1ccccc1)N1C(=O)/C(=C\c2ccc(-c3ccc(Cl)c(Cl)c3)o2)NC1=S` (centres unmarked) [EX. 6, 2-(4-((5-(3,4-Dichlorophenyl)furan-2-yl)methylene)-5-oxo-2-thioxoimidazolidin-1-yl)-3-phenylpropanoic acid] yielded an inhibition at 3 µM [1] of -3.72%.
Work on `O=C(O)C(Cc1ccccc1)N1C(=O)/C(=C\c2ccc(-c3ccc(Br)cc3)s2)NC1=S` (centres unmarked) [EX. 7, 2-(4-((5-(4-Bromophenyl)thiophen-2-yl)methylene)-5-oxo-2-thioxoimidazolidin-1-yl)-3-phenylpropanoic acid] yielded an inhibition at 3 µM (B. anthracis ΔSterne) of 67.9%.
